Values quoted from earlier work in US20070275095A1, “TREATMENT OF INFLAMMATORY, AUTOIMMUNE, OR OTHER DISORDERS, USING AGENTS THAT REDUCE THE SEQUESTERING OF ZINC BY CALPROTECTIN” (priority 2005, published 2007).

Tests used:
neutrophil cells = settings: Oyama et al 1997
calprotectin [1] = settings: Oyama et al 1997
[2] = test system: tumor necrosis factor (TNF); settings: same literature reports
calprotectin [3] = settings: zinc binding not measured directly; apoptosis measured (Yui et al 1998 and 2003, Mikami et al 1999)
[4] = clinical trials reviewed in Kidd 2002, Kern et al 2004, Esch et al 2004, Sturmey 2005

## CC(C)c1ccc2oc3nc(N)c(C(=O)O)cc3c(=O)c2c1 [amlexanox]
Neutrophil cells
  suppression of calprotectin release by neutrophils: impedes and suppresses the release of calprotectin by the neutrophils
Calprotectin [1]
  binding to calprotectin molecules in neutrophils: bind to calprotectin molecules contained in the neutrophils

## O=C1N[C@@H]2C(=C[C@H](O)[C@@H](O)[C@H]2O)c2cc3c(c(O)c21)OCO3 [lycoricidinol]
[2]
  inhibition of tumor necrosis factor (TNF): appear to inhibit
Calprotectin [3]
  inhibition of zinc binding by calprotectin: appear to inhibit zinc binding by calprotectin, to some extent

## O[C@H]1[C@H]2c3cc4c(cc3CN3CCC(=C[C@@H]1O)[C@H]23)OCO4 [lycorine]
[2]
  inhibition of tumor necrosis factor (TNF): appear to inhibit
Calprotectin [3]
  inhibition of zinc binding by calprotectin: appear to inhibit zinc binding by calprotectin, to some extent

## secretin
[4]
  clinical trial outcome in autism: mainly negative results
